The values below come from patent publication US12226418B2, “Dosing regimen for the treatment of PI3K related disorders” (Incyte Corporation, priority 2018, dated 2025).

The IC50 is the concentration needed to halve the response being measured.

Data set [1] deals with Pfeiffer cell line (diffuse large B cell lymphoma). The experiment in a line: Pfeiffer cell proliferation assay. The class given is cell-based, human. As to conditions: for IC50: Homo sapiens, Pfeiffer, [3H]-thymidine incorporation. As to the method:
Pfeiffer cell line (diffuse large B cell lymphoma) are purchased from ATCC (Manassas, VA) and maintained in the culture medium recommended (RPMI and 10% FBS). To measure the anti-proliferation activity of the compounds, the Pfeiffer cells are plated with the culture medium (2×10^3 cells/well/per 200 μl) into 96-well ultra-low binding plates (Corning, Corning, NY), in the presence or absence of a concentration range of test compounds. After 3-4 days, [^3H]-thymidine (1 μCi/well) (PerkinElmer, Boston, MA) in PBS is then added to the cell culture for an additional 12 hours before the incorporated radioactivity is separated by filtration with water through GF/B filters (Packard Bioscience, Meridenj, CT) and measured by liquid scintillation counting with a TopCount (Packard Bioscience).
For orientation: Uptake of a labelled nucleoside into DNA is a usual measure of proliferation.

Another data set has as its target PI3Kδ (p110δ/p85α) (Homo sapiens (Human), UniProt O00329). The experiment in a line: PI3Kδ scintillation proximity assay. The class given is biochemical. As to conditions: 20 μM ATP; read-out: PI3Kδ SPA IC50. The source says:
[γ-^33P]ATP (10 mCi/mL) was purchased from Perkin-Elmer (Waltham, MA). Lipid kinase substrate, D-myo-Phosphatidylinositol 4,5-bisphosphate (PtdIns(4,5)P2)D (+)-sn-1,2-di-O-octanoylglyceryl, 3-O-phospho linked (PIP2), CAS 204858-53-7, was purchased from Echelon Biosciences (Salt Lake City, UT). PI3Kδ (p110δ/p85α) was purchased from Millipore (Bedford, MA). ATP, MgCl2, DTT, EDTA, MOPS and CHAPS were purchased from Sigma-Aldrich (St. Louis, MO). Wheat Germ Agglutinin (WGA) YSi SPA Scintillation Beads was purchased from GE healthcare life sciences (Piscataway, NJ).
The kinase reaction was conducted in polystyrene 384-well matrix white plate from Thermo Fisher Scientific in a final volume of 25 μL. Inhibitors were first diluted serially in DMSO and added to the plate wells before the addition of other reaction components. The final concentration of DMSO in the assay was 0.5%. The PI3K assays were carried out at room temperature in 20 mM MOPS, pH 6.7, 10 mM MgCl2, 5 mM DTT and CHAPS 0.03%. Reactions were initiated by the addition of ATP, the final reaction mixture consisted of 20 μM PIP2, 20 μM ATP, 0.2 μCi [γ-^33P]ATP, 4 nM PI3Kδ. Reactions were incubated for 210 min and terminated by the addition of 40 μL SPA beads suspended in quench buffer: 150 mM potassium phosphate pH 8.0, 20% glycerol. 25 mM EDTA, 400 μM ATP. The final concentration of SPA beads was 1.0 mg/mL. After the plate sealing, plates were shaken overnight at room temperature and centrifuged at 1800 rpm for 10 minutes, the radioactivity of the product was determined by scintillation counting on Topcount (Perkin-Elmer). IC50 determination was performed by fitting the curve of percent control activity versus the log of the inhibitor concentration using the GraphPad Prism 3.0 software. IC50 data for the Examples is presented in Table B as determined by Assay A.
(Scintillation proximity formats need no separation of bound from free tracer.)

A short description of data set [2]: Clinical pharmacokinetics and food effect, Compound 1C monotherapy. The data set is classed as in vivo. Here is the method:
Patients were assessed on Days 1, 8, and 15 of Cycle 1 and Day 1 (±3) of each subsequent treatment cycle.

In data set [3] the test system is relapsed or refractory B-cell malignancies. Nature of the data set: Efficacy, Compound 1C monotherapy. The class given is in vivo, human. As to conditions: for durable response: included QW dosing. Here is the method:
The secondary endpoints were efficacy and PK. Efficacy was measured by best overall response rate (ORR), defined as the proportion of patients achieving a partial response (PR) or complete response (CR). Response was evaluated (per investigator's assessment) every 9 weeks based on the Lugano classification of lymphoma response criteria for HL and NHL (Cheson B. D. et al, Journal of Clinical Oncology, 2014; 32(27):3059-3067), the International Working Group on Chronic Lymphocytic Leukemia criteria for chronic lymphocytic leukemia (CLL) (Hallek M. et al, Blood, 2008; 111(12):5446-5456; Cheson B. D. et al, J Clin Oncol, 2012; 30(23):2820-2822)), and the VIth International Workshop on Waldenström Macroglobulinemia response assessment for Waldenström Macroglobulinemia (WM) (Owen R. G. et al, Br J Haematol, 2013; 160(2):171-176). If the patient's response to treatment was assessed by PET and CTI/MRI, then the PET result was used for response endpoints; CT/MRI result was used for an assessment if PET result was not available for the assessment; CT/MRI was used for response endpoints if it was the only form of assessment available for the patient.
(§1) Exploratory endpoints included: duration of response (DOR, duration of time from first response to death or disease progression, whichever occurred first); progression free survival (PFS, duration of time from first study dose to death or disease progression, whichever occurred first); population PK; pharmacodynamic (PD) relationship between PI3Kδ inhibition (as determined by an ex vivo phosphorylated AKT [pAKT] assay).

Data set [4] relates to phosphorylated AKT (pAKT; Ser473) in SU-DHL cells. The experiment in a line: Ex vivo phosphorylated AKT (pAKT) pharmacodynamic assay in patient whole blood. The data set is classed as cell-based, human. Conditions: all Compound 1C doses, up to 6 hours post-dose. As to the method: Compound 1C was dosed once daily and levels of phosphorylated AKT (pAKT; Ser473) were measured by flow cytometry in SU-DHL cells added to patient whole blood after Compound 1C treatment on day 15 of cycle 1.
as §1

Structures are written as SMILES.

PI3Kδ (p110δ/p85α), sequence (O00329 whole entry): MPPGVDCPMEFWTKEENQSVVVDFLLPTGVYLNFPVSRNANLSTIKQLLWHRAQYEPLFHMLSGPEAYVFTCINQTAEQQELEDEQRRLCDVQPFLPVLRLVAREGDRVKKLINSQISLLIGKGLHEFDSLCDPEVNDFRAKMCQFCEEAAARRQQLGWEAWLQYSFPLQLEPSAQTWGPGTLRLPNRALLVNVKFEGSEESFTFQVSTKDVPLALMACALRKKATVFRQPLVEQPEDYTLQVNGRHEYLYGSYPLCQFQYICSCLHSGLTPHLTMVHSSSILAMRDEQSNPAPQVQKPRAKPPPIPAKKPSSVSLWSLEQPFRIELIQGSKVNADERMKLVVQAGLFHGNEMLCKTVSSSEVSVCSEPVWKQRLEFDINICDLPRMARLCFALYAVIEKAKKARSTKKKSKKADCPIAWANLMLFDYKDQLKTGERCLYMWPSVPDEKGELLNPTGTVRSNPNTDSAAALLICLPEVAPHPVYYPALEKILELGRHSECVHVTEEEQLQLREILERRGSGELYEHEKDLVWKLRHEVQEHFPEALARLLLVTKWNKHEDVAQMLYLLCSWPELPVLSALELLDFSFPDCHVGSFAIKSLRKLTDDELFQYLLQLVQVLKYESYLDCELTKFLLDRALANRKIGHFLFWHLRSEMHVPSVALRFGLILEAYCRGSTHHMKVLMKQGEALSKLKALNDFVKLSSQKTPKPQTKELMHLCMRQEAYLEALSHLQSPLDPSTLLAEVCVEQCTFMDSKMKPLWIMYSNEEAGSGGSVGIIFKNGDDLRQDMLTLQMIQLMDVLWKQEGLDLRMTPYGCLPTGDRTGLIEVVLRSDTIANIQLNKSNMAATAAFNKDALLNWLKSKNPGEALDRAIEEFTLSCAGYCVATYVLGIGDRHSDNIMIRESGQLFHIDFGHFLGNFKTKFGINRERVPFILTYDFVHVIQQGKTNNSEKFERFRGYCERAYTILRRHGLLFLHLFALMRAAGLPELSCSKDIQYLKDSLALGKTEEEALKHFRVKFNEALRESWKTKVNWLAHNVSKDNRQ
PI3Kδ (p110δ/p85α), sequence (P27986 whole entry partner): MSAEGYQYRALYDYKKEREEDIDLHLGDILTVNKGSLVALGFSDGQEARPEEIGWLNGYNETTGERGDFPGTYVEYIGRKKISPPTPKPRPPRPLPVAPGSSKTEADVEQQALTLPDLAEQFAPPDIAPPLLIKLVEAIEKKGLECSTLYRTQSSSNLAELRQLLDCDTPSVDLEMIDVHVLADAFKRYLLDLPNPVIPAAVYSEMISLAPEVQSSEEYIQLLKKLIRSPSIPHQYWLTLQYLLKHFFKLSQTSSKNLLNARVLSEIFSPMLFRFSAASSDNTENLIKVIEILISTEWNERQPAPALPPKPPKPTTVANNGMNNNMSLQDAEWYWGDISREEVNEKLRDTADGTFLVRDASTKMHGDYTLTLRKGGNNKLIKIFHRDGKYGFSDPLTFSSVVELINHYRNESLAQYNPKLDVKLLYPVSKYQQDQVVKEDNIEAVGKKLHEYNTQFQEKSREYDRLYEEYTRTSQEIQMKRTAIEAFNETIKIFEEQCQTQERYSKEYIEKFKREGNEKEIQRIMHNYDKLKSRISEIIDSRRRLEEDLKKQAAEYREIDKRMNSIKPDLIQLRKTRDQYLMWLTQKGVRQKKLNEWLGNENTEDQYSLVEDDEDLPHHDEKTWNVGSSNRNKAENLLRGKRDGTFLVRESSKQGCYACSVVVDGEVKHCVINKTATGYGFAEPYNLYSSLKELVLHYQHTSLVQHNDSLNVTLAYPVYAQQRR

For the molecule `CCOc1c(C(C)n2nc(C)c3c(N)ncnc32)cc(Cl)c(F)c1C1CNC(=O)C1` (single isomer, unassigned) [Example 1B, 4-{3-[1-(4-amino-3-methyl-1H-pyrazolo[3,4-d]pyrimidin-1-yl)ethyl]-5-chloro-2-ethoxy-6-fluorophenyl}pyrrolidin-2-one], in data set [1], the concentration for half-maximal inhibition (IC50) is ≤ 10 nM.
As to `CCOc1c(C(C)n2nc(C)c3c(N)ncnc32)cc(Cl)c(F)c1C1CNC(=O)C1` (single isomer, unassigned) [Example 1C], the “sensitivity of Pfeiffer cancer cells to anti-proliferative effects in vitro” value in data set [1] is on record as “sensitive”.
Consider `CCOc1c(C(C)n2nc(C)c3c(N)ncnc32)cc(Cl)c(F)c1C1CNC(=O)O1` (single isomer, unassigned) [Example 2B, 5-{3-[1-(4-amino-3-methyl-1H-pyrazolo[3,4-d]pyrimidin-1-yl)ethyl]-5-chloro-2-ethoxy-6-fluorophenyl}-1,3-oxazolidin-2-one], for which the IC50 on PI3Kδ (p110δ/p85α) lay in the range of 50 to 200 nM.
Take `CCOc1c(C(C)n2nc(C)c3c(N)ncnc32)cc(Cl)c(F)c1C1CNC(=O)O1` (single isomer, unassigned) [Example 2C, 5-{3-[1-(4-amino-3-methyl-1H-pyrazolo[3,4-d]pyrimidin-1-yl)ethyl]-5-chloro-2-ethoxy-6-fluorophenyl}-1,3-oxazolidin-2-one]: the 50% inhibitory concentration (IC50) in data set [1] was ≤ 10 nM.
Consider `CCOc1c(C(C)n2nc(C)c3c(N)ncnc32)cc(Cl)c(F)c1C1CNC(=O)O1` (single isomer, unassigned) [Example 2D, 5-{3-[1-(4-amino-3-methyl-1H-pyrazolo[3,4-d]pyrimidin-1-yl)ethyl]-5-chloro-2-ethoxy-6-fluorophenyl}-1,3-oxazolidin-2-one], for which the IC50 at PI3Kδ (p110δ/p85α) is > 500 nM.
In the case of `CCOc1c([C@H](C)n2nc(C)c3c(N)ncnc32)cc(Cl)c(F)c1[C@@H]1CNC(=O)C1.Cl` [Compound 1C, (R)-4-(3-((S)-1-(4-amino-3-methyl-1H-pyrazolo[3,4-d]pyrimidin-1-yl)ethyl)-5-chloro-2-ethoxy-6-fluorophenyl)pyrrolidin-2-one hydrochloric acid salt], the “Cmax above the IC90 for pAKT inhibition” value in data set [2] (20 mg QD) is 16 fold. Further, the “Ctrough above the IC90 for pAKT inhibition” value in data set [2] (20 mg QD) is on record as 2 fold. In addition, in data set [2] (food effect, 12 patients), the “decrease in AUC with high fat meal” value came out at 10%. In data set [2] (food effect, 12 patients), the “decrease in Cmax with high fat meal compared with fasted state” value is 42%. Also, the “fed versus fasted geometric mean ratio for AUC” value in data set [2] (food effect, 12 patients) is 0.90. Besides, the “food effect analysis, timing of meals” value in data set [2] (human, in vivo) is “may be dosed without regard to timing of meals”. Also, the CR/CMR in data set [3] (CLL, N 6) is 0 (0) n (%); in data set [3] (DLBCL ABC, N 2), 0 (0) n (%); in data set [3] (DLBCL GCB, N 19), 4 (21) n (%); in data set [3] (DLBCL, N 23), 4 (17) n (%); in data set [3] (FL, N 14), 3 (21) n (%); in data set [3] (HL, N 10), 0 (0) n (%). Moreover, the CR/CMR in data set [3] (MCL, N 9) is 4 (44) n (%); in data set [3] (MZL, N 9), 3 (33) n (%); in data set [3] (WM, N 1) it was 0 (0) n (%). Besides, the “Not evaluable/ not assessed” value in data set [3] (CLL, N 6) is on record as 1 (17) n (%); in data set [3] (DLBCL ABC, N 2), 0 n (%); in data set [3] (DLBCL GCB, N 19), 1 (5) n (%); in data set [3] (DLBCL, N 23), 1 (4) n (%); in data set [3] (FL, N 14) it was 1 (7) n (%); in data set [3] (HL, N 10), 1 (10) n (%). In addition, the “Not evaluable/ not assessed” value in data set [3] (MCL, N 9) is 1 (11) n (%); in data set [3] (MZL, N 9), 0 n (%); in data set [3] (WM, N 1) it was 0 n (%). Further, the ORR in data set [3] (CLL, N 6) is 2 (33 [4-78]) n (% [95% CI]); in data set [3] (DLBCL), 30%; in data set [3] (DLBCL ABC, N 2), 1 (50 [1-99]) n (% [95% CI]); in data set [3] (DLBCL GCB, N 19), 6 (32 [13-57]) n (% [95% CI]); in data set [3] (DLBCL, N 23), 7 (30 [13-53]) n (% [95% CI]); in data set [3] (FL), 71%. Besides, the ORR is 10 (71 [42-92]) n (% [95% CI]) in data set [3] (FL, N 14); 2 (20 [3-56]) n (% [95% CI]) in data set [3] (HL, N 10); 67% in data set [3] (MCL); 6 (67 [30-93]) n (% [95% CI]) in data set [3] (MCL, N 9); 78% in data set [3] (MZL); 7 (78 [40-97]) n (% [95% CI]) in data set [3] (MZL, N 9). The ORR in data set [3] (WM, N 1) was 1 (100 [3-100]) n (% [95% CI]). Besides, the PD/PMD in data set [3] (CLL, N 6) is listed as 1 (17) n (%); in data set [3] (DLBCL ABC, N 2), 1 (50) n (%); in data set [3] (DLBCL GCB, N 19), 9 (47) n (%); in data set [3] (DLBCL, N 23), 11 (48) n (%); in data set [3] (FL, N 14) it was 2 (14) n (%); in data set [3] (HL, N 10), 4 (40) n (%). Moreover, the PD/PMD in data set [3] (MCL, N 9) is reported as 0 (0) n (%); in data set [3] (MZL, N 9), 1 (11) n (%); in data set [3] (WM, N 1), 0 (0) n (%). Moreover, the PR/PMR in data set [3] (CLL, N 6) was 2 (33) n (%); in data set [3] (DLBCL ABC, N 2), 1 (50) n (%); in data set [3] (DLBCL GCB, N 19), 2 (11) n (%); in data set [3] (DLBCL, N 23), 3 (13) n (%); in data set [3] (FL, N 14) it was 7 (50) n (%); in data set [3] (HL, N 10), 2 (20) n (%). The PR/PMR in data set [3] (MCL, N 9) was 2 (22) n (%); in data set [3] (MZL, N 9), 4 (44) n (%); in data set [3] (WM, N 1), 1 (100) n (%). Further, the “median duration of response” value in data set [3] (DLBCL) was 13.5 months; in data set [3] (FL) it was “not reached”; in data set [3] (MCL), “not reached”; in data set [3] (MZL), 4.4 months. The “deep responses (>75% decrease from baseline in target lesion size), patients” value in data set [3] (DLBCL, 20 evaluable) amounted to 10%; in data set [3] (FL, 14 evaluable), 50%; in data set [3] (MCL, 8 evaluable) it was 38%; in data set [3] (MZL, 7 evaluable), 57%. Further, the durable response was ~19 months in data set [3] (DLBCL), ~17 months in data set [3] (FL), ≥ 14 months in data set [3] (MCL) and ~10 months in data set [3] (MZL). Besides, the “responses occurring by the first assessment (~9 weeks)” value in data set [3] (MZL, FL, MCL, DLBCL) worked out at 93%. In data set [3] (QW dosing), the “durable responses among patients receiving QW dosing” value is recorded as > 6 months. For the same molecule, the “patients who achieved an objective response” value in data set [3] (all patients with NHL administered 20 mg QD at time of regimen change) came out at 11 patients. Moreover, the “objective responses at the first disease assessment” value in data set [3] (of 11 patients with NHL administered 20 mg QD) came to 10. In data set [3] (of the 4 patients with MCL), the “objective responses in patients previously treated with ibrutinib” value amounted to 2 patients. The “deep responses, patients” value in data set [3] (relapsed or refractory B-cell NHL, 10 mg QD to 45 mg QD) was > 30%. In data set [4], the “inhibition of pAKT in whole blood” value was “near-maximal inhibition”.
